Test results taken from patent EP0012139A1, “Therapeutic agent for stimulating the immune response in a mammal” (AMERICAN CYANAMID COMPANY, priority 1978, dated 1980).
Where a name gives a salt, the structure may show the parent alone.

What was measured:
Rauscher leukemia virus = assay: Antibody response to sheep red blood cells in Rauscher leukemia virus-infected (leukemic) mice, hemagglutinin test; assay type: in vivo, BALB/C mice; conditions: for Hemagglutinin Titer* Test 1: reciprocal of serum dilution producing at least 50% agglutination, infected control 8, non-infected control 1024; for Hemagglutinin Titer* Test 6: infected control 32, non-infected control 2048; for Hemagglutinin Titer* Test 5: infected control 128, non-infected control 4096
[1] = test system: transplantable C3H mammary tumor; assay: Transplanted C3H mammary tumor growth in mice; conditions: for Ave. tumor diameter (mm.^2) (weeks after tumor implantation 3): week 3, untreated control 22; for Ave. tumor diameter (mm.^2) (weeks after tumor implantation 4): week 4, untreated control 73; for Ave. tumor diameter (mm.^2) (weeks after tumor implantation 5): week 5, untreated control 149; for Ave. tumor diameter (mm.^2) (weeks after tumor implantation 6): week 6, untreated control 218; for Ave. tumor diameter (mm.^2) (weeks after tumor implantation 7): week 7, untreated control 316
Description: C3H/HEB/J male mice were inoculated subcutaneously with five 2 mm. fragments of a transplantable C3H mammary tumor on day zero. Drugs were administered once every 7 days for 5 weeks, starting 14 days after tumor inoculation. When test drug (or the control, Corynebacterium parvum) was administered in combination with Cytoxan, it was given 4 days after the Cytoxan. […] Tumor diameters were measured by means of a Vernier caliper. Test substances were considered active if tumor growth, as indicated by tumor diameter, was inhibited by 50% or more.

[2] = 100 mg/kg orally days 6, 7, 8, reciprocal serum dilution, infected control 32, non-infected control 512
[3] = 100 mg./kg. orally + Cytoxan 60 mg./kg.
[4] = 200 mg./kg. orally + Cytoxan 60 mg./kg.
[5] = 300 mg./kg. orally + Cytoxan 60 mg./kg.
[6] = Cytoxan 60 mg./kg. intraperitoneally alone

Structure (SMILES): CN(C)CCCOc1ccc2cc3ccc(OCCCN(C)C)cc3nc2c1 [3,6-Bis-(3-dimethylaminopropoxy)acridine]
- Hemagglutinin Titer* Test 1 (Rauscher leukemia virus; 100 mg/kg orally days 6, 7, 8): 128
- Hemagglutinin Titer* Test 2 (Rauscher leukemia virus; [2]): 128

Structure (SMILES): CCN(CC)CCOc1ccc2cc3ccc(OCCN(CC)CC)cc3nc2c1.Cl.Cl.Cl [3,6-Bis-(2-diethylaminoethoxy)acridine trihydrochloride]
- Hemagglutinin Titer* Test 6 (Rauscher leukemia virus; 37.5 mg/kg orally days 6, 7, 8, reciprocal serum dilution): 64
- Hemagglutinin Titer* Test 4 (Rauscher leukemia virus; 50 mg/kg orally days 6, 7, 8, reciprocal serum dilution, infected control 32, non-infected control 512): 128
- Hemagglutinin Titer* Test 5 (Rauscher leukemia virus; 50 mg/kg orally days 6, 7, 8, reciprocal serum dilution): 128
- Hemagglutinin Titer* Test 6 (Rauscher leukemia virus; 75 mg/kg orally days 6, 7, 8, reciprocal serum dilution): 128
- Hemagglutinin Titer* Test 3 (Rauscher leukemia virus; [2]): 128
- Hemagglutinin Titer* Test 4 (Rauscher leukemia virus; [2]): 256
- Hemagglutinin Titer* Test 5 (Rauscher leukemia virus; 100 mg/kg orally days 6, 7, 8, reciprocal serum dilution): 512
- Hemagglutinin Titer* Test 6 (Rauscher leukemia virus; 150 mg/kg orally days 6, 7, 8, reciprocal serum dilution): 128
- Hemagglutinin Titer* Test 5 (Rauscher leukemia virus; 200 mg/kg orally days 6, 7, 8, reciprocal serum dilution): 512
- Hemagglutinin Titer* Test 6 (Rauscher leukemia virus; 300 mg/kg orally days 6, 7, 8, reciprocal serum dilution): 128
- Hemagglutinin Titer* Test 6 (Rauscher leukemia virus; 600 mg/kg orally days 6, 7, 8, reciprocal serum dilution): 256
- Ave. tumor diameter (mm.^2) (weeks after tumor implantation 3) ([1]; 100 mg./kg. orally + Cytoxan 60 mg./kg. i.p. (given 4 days after Cytoxan)): 34 mm.^2
- Ave. tumor diameter (mm.^2) (weeks after tumor implantation 4) [1, 3]: 53 mm.^2
- Ave. tumor diameter (mm.^2) (weeks after tumor implantation 5) [1, 3]: 112 mm.^2
- Ave. tumor diameter (mm.^2) (weeks after tumor implantation 6) [1, 3]: 149 mm.^2
- Ave. tumor diameter (mm.^2) (weeks after tumor implantation 7) [1, 3]: 107 mm.^2
- Ave. tumor diameter (mm.^2) (weeks after tumor implantation 3) ([1]; 200 mg./kg. orally + Cytoxan 60 mg./kg. i.p. (given 4 days after Cytoxan)): 32 mm.^2
- Ave. tumor diameter (mm.^2) (weeks after tumor implantation 4) [1, 4]: 66 mm.^2
- Ave. tumor diameter (mm.^2) (weeks after tumor implantation 5) [1, 4]: 82 mm.^2
- Ave. tumor diameter (mm.^2) (weeks after tumor implantation 6) [1, 4]: 115 mm.^2
- Ave. tumor diameter (mm.^2) (weeks after tumor implantation 7) [1, 4]: 135 mm.^2
- Ave. tumor diameter (mm.^2) (weeks after tumor implantation 3) ([1]; 200 mg./kg. orally alone, once every 7 days): 22 mm.^2
- Ave. tumor diameter (mm.^2) (weeks after tumor implantation 4) ([1]; 200 mg./kg. orally alone): 44 mm.^2
- Ave. tumor diameter (mm.^2) (weeks after tumor implantation 5) ([1]; 200 mg./kg. orally alone): 109 mm.^2
- Ave. tumor diameter (mm.^2) (weeks after tumor implantation 6) ([1]; 200 mg./kg. orally alone): 148 mm.^2
- Ave. tumor diameter (mm.^2) (weeks after tumor implantation 7) ([1]; 200 mg./kg. orally alone): 223 mm.^2
- Ave. tumor diameter (mm.^2) (weeks after tumor implantation 3) ([1]; 300 mg./kg. orally + Cytoxan 60 mg./kg. i.p. (given 4 days after Cytoxan)): 37 mm.^2
- Ave. tumor diameter (mm.^2) (weeks after tumor implantation 4) [1, 5]: 71 mm.^2
- Ave. tumor diameter (mm.^2) (weeks after tumor implantation 5) [1, 5]: 99 mm.^2
- Ave. tumor diameter (mm.^2) (weeks after tumor implantation 6) [1, 5]: 128 mm.^2
- Ave. tumor diameter (mm.^2) (weeks after tumor implantation 7) [1, 5]: 160 mm.^2
- Ave. tumor diameter (mm.^2) (weeks after tumor implantation 3) ([1]; 300 mg./kg. orally alone, once every 7 days): 61 mm.^2
- Ave. tumor diameter (mm.^2) (weeks after tumor implantation 4) ([1]; 300 mg./kg. orally alone): 98 mm.^2
- Ave. tumor diameter (mm.^2) (weeks after tumor implantation 5) ([1]; 300 mg./kg. orally alone): 220 mm.^2
- Ave. tumor diameter (mm.^2) (weeks after tumor implantation 6) ([1]; 300 mg./kg. orally alone): 375 mm.^2
- inhibitory effect on mammary tumor growth compared to the untreated control ([1]; administered alone at 300, 200 and 100 mg./kg. every week for 5 weeks): only the 200 mg./kg. dose level produced an inhibitory effect
- tumor growth being inhibited ([1]; combined with Cytoxan 60 mg./kg., all dose levels (300, 200, 100 mg./kg.)): 50 - 65%
- tumor diameter of treated mice averaging ([1]; combined with Cytoxan 60 mg./kg., all dose levels, 316 mm.^2 for the untreated controls): 107 - 160 mm.^2

Structure (SMILES): CN(C)CCOc1ccc2cc3ccc(OCCN(C)C)cc3nc2c1 [3,6-Bis-(2-dimethylaminoethoxy)acridine]
- Hemagglutinin Titer* Test 1 (Rauscher leukemia virus; 100 mg/kg orally days 6, 7, 8): 128
- Hemagglutinin Titer* Test 2 (Rauscher leukemia virus; [2]): 128

Structure (SMILES): CCCCN(CCCC)CCOc1ccc2cc3ccc(OCCN(CCCC)CCCC)cc3nc2c1 [3,6-Bis-(2-di-n-butylaminoethoxy)acri-dine trihydrochloride]
- Hemagglutinin Titer* Test 1 (Rauscher leukemia virus; 100 mg/kg orally days 6, 7, 8): 32

Structure (SMILES): O=P1(N(CCCl)CCCl)NCCCO1 (stereo not drawn) [Cytoxan, reference compound]
- effect of Cytoxan dose on mammary tumor growth ([1]; 60 mg./kg. alone): ineffective dose
- Ave. tumor diameter (mm.^2) (weeks after tumor implantation 3) ([1]; Cytoxan 60 mg./kg. intraperitoneally alone, once every 7 days): 47 mm.^2
- No. Survivors No. Treated ([1]; Cytoxan 60 mg./kg. intraperitoneally alone, untreated control 7/8): 6/8
- Ave. tumor diameter (mm.^2) (weeks after tumor implantation 4) [1, 6]: 101 mm.^2
- Ave. tumor diameter (mm.^2) (weeks after tumor implantation 5) [1, 6]: 187 mm.^2
- Ave. tumor diameter (mm.^2) (weeks after tumor implantation 6) [1, 6]: 277 mm.^2
- Ave. tumor diameter (mm.^2) (weeks after tumor implantation 7) [1, 6]: 363 mm.^2

Structure (SMILES): CN(C)C(C)(C)COc1ccc2cc3ccc(OCC(C)(C)N(C)C)cc3nc2c1 [3,6-Bis-(2-dimethylamino-2-methylpro-poxy)acridine trihydrochloride]
- Hemagglutinin Titer* Test 1 (Rauscher leukemia virus; 100 mg/kg orally days 6, 7, 8): 64
